Results taken from the NIST ThermoML archive (doi:10.1016/j.jct.2018.09.011).
Values joined by “and” are separate entries in the source; they are usually repeats but may differ in a detail not shown here. Identical values can stand only once. ± gives the expanded uncertainty stated by the source.

Tests used:
[1] = for Normal melting temperature: DTA
[2] = Molar enthalpy of transition or fusion; settings: Crystal; DSC

Nc1ccc(O)cc1 [4-hydroxybenzenamine]
[1], Crystal, Calculated from knudsen effusion weight loss
Settings	vapor or sublimation pressure
337.15 K	0.000113 ± 2e-05 kPa and 0.000111 ± 2e-05 kPa
339.54 K	0.000144 ± 2.1e-05 kPa and 0.000147 ± 2.1e-05 kPa and 0.000145 ± 2.1e-05 kPa
341.2 K	0.000179 ± 2.1e-05 kPa and 0.000175 ± 2.1e-05 kPa and 0.000177 ± 2.1e-05 kPa
343.15 K	0.000223 ± 2.2e-05 kPa and 0.000221 ± 2.1e-05 kPa and 0.000219 ± 2.1e-05 kPa
345.47 K	0.000284 ± 2.2e-05 kPa and 0.00028 ± 2.2e-05 kPa and 0.000287 ± 2.2e-05 kPa
347.19 K	0.000348 ± 2.4e-05 kPa and 0.000342 ± 2.3e-05 kPa and 0.000344 ± 2.3e-05 kPa
349.15 K	0.000425 ± 2.5e-05 kPa and 0.000418 ± 2.5e-05 kPa and 0.000431 ± 2.5e-05 kPa
351.21 K	0.000527 ± 2.7e-05 kPa and 0.000533 ± 2.8e-05 kPa and 0.00053 ± 2.7e-05 kPa
353.2 K	0.000653 ± 3.1e-05 kPa and 0.000634 ± 3e-05 kPa and 0.000645 ± 3e-05 kPa
355.14 K	0.000787 ± 3.4e-05 kPa and 0.000786 ± 3.4e-05 kPa and 0.000796 ± 3.5e-05 kPa
357.46 K	0.001018 ± 7.9e-05 kPa and 0.001002 ± 7.8e-05 kPa and 0.001003 ± 7.8e-05 kPa
359.19 K	0.001205 ± 9.7e-05 kPa and 0.001211 ± 9.8e-05 kPa and 0.001198 ± 9.6e-05 kPa

Settings	Normal melting temperature [°C]
[1], Crystal	186.89 ± 0.68

Settings	Molar enthalpy of transition or fusion [kcal/mol]
[2]	7.51 ± 0.198

Nc1cccc(O)c1 [3-hydroxybenzenamine]
[1], Crystal, Calculated from knudsen effusion weight loss
Settings	vapor or sublimation pressure
321.35 K	0.000101 ± 2e-05 kPa and 0.000102 ± 2e-05 kPa
323.2 K	0.000127 ± 2.1e-05 kPa and 0.000126 ± 2.1e-05 kPa
325.17 K	0.000163 ± 2.1e-05 kPa and 0.000161 ± 2.1e-05 kPa and 0.000162 ± 2.1e-05 kPa
327.4 K	0.000209 ± 2.1e-05 kPa and 0.000211 ± 2.1e-05 kPa and 0.00021 ± 2.1e-05 kPa
329.2 K	0.00026 ± 2.2e-05 kPa and 0.000259 ± 2.2e-05 kPa
331.17 K	0.000327 ± 2.3e-05 kPa and 0.00033 ± 2.3e-05 kPa and 0.000328 ± 2.3e-05 kPa
333.37 K	0.000422 ± 2.5e-05 kPa and 0.00042 ± 2.5e-05 kPa
335.2 K	0.000513 ± 2.7e-05 kPa and 0.0005 ± 2.7e-05 kPa and 0.00051 ± 2.7e-05 kPa
337.16 K	0.00063 ± 3e-05 kPa and 0.000633 ± 3e-05 kPa
339.36 K	0.000816 ± 3.5e-05 kPa and 0.000808 ± 3.5e-05 kPa and 0.000818 ± 3.5e-05 kPa
341.19 K	0.00099 ± 4e-05 kPa and 0.000998 ± 4.1e-05 kPa and 0.001 ± 4.1e-05 kPa
343.33 K	0.001245 ± 0.0001 kPa and 0.001241 ± 0.0001 kPa and 0.001238 ± 0.0001 kPa

[1]
Settings	vapor or sublimation pressure [kPa]
354.45 K, Crystal	0.00426 ± 0.00023
356.39 K, Crystal	0.00515 ± 0.00023
358.34 K, Crystal	0.00622 ± 0.00025
360.33 K, Crystal	0.00754 ± 0.00026
362.32 K, Crystal	0.00913 ± 0.00026
364.28 K, Crystal	0.01083 ± 0.00028
366.24 K, Crystal	0.01321 ± 0.00029
368.21 K, Crystal	0.01572 ± 0.00032
369.99 K, Metastable liquid	0.02985 ± 0.00042
370.19 K, Crystal	0.01886 ± 0.00035
371.93 K, Metastable liquid	0.03445 ± 0.00047
372.14 K, Crystal	0.02314 ± 0.00038
373.94 K, Metastable liquid	0.03983 ± 0.00051
374.12 K, Crystal	0.02745 ± 0.00041
375.91 K, Metastable liquid	0.04535 ± 0.00055
376.1 K, Crystal	0.03277 ± 0.00045
377.86 K, Metastable liquid	0.05245 ± 0.00062
378.06 K, Crystal	0.0385 ± 0.00051
379.83 K, Metastable liquid	0.06035 ± 0.00069
380.03 K, Crystal	0.04532 ± 0.00056
381.81 K, Metastable liquid	0.06885 ± 0.00076
382.13 K, Crystal	0.05475 ± 0.00065
383.79 K, Metastable liquid	0.07865 ± 0.00085
383.96 K, Crystal	0.06316 ± 0.00072
385.75 K, Metastable liquid	0.08925 ± 0.00093
385.9 K, Crystal	0.07525 ± 0.00082
387.75 K, Metastable liquid	0.1024 ± 0.0011
387.9 K, Crystal	0.08917 ± 0.00094
389.74 K, Metastable liquid	0.1162 ± 0.0012
389.85 K, Crystal	0.1058 ± 0.0011
391.73 K, Metastable liquid	0.131 ± 0.0013
391.83 K, Crystal	0.1242 ± 0.0012
393.68 K, Metastable liquid	0.1478 ± 0.0015
395.67 K, Metastable liquid	0.1684 ± 0.0016
397.62 K, Liquid	0.1915 ± 0.0019
399.72 K, Liquid	0.2191 ± 0.002
401.54 K, Liquid	0.2426 ± 0.0023
403.63 K, Liquid	0.2731 ± 0.0026
405.59 K, Liquid	0.3119 ± 0.0029
407.46 K, Liquid	0.3461 ± 0.0032
409.54 K, Liquid	0.3932 ± 0.0036
411.5 K, Liquid	0.4342 ± 0.004
413.47 K, Liquid	0.4825 ± 0.0044
415.43 K, Liquid	0.5451 ± 0.005
417.4 K, Liquid	0.6031 ± 0.0054
419.39 K, Liquid	0.6721 ± 0.006
421.33 K, Liquid	0.7506 ± 0.0067
423.31 K, Liquid	0.8416 ± 0.0075

Settings	Normal melting temperature [°C]
[1], Crystal	121.48 ± 0.63

Settings	Molar enthalpy of transition or fusion [kcal/mol]
[2]	5.6 ± 0.155

Nc1ccccc1O [2-hydroxybenzenamine]
[1], Crystal, Calculated from knudsen effusion weight loss
Settings	vapor or sublimation pressure
321.12 K	0.000107 ± 2e-05 kPa and 0.000105 ± 2e-05 kPa and 0.000106 ± 2e-05 kPa
323.43 K	0.000141 ± 2.1e-05 kPa and 0.000138 ± 2.1e-05 kPa and 0.000139 ± 2.1e-05 kPa
325.14 K	0.00017 ± 2.1e-05 kPa and 0.000172 ± 2.1e-05 kPa
327.13 K	0.000212 ± 2.1e-05 kPa and 0.000214 ± 2.1e-05 kPa
329.3 K	0.000271 ± 2.2e-05 kPa and 0.000277 ± 2.2e-05 kPa and 0.000275 ± 2.2e-05 kPa
331.21 K	0.000343 ± 2.3e-05 kPa and 0.000335 ± 2.3e-05 kPa and 0.00034 ± 2.3e-05 kPa
333.13 K	0.000423 ± 2.5e-05 kPa and 0.000419 ± 2.5e-05 kPa
335.33 K	0.000534 ± 2.8e-05 kPa and 0.000541 ± 2.8e-05 kPa and 0.000538 ± 2.8e-05 kPa
337.2 K	0.000661 ± 3.1e-05 kPa and 0.000654 ± 3.1e-05 kPa and 0.000657 ± 3.1e-05 kPa
339.14 K	0.000824 ± 3.5e-05 kPa and 0.000835 ± 3.6e-05 kPa and 0.000826 ± 3.5e-05 kPa
341.33 K	0.001036 ± 8.1e-05 kPa and 0.001041 ± 8.1e-05 kPa and 0.001043 ± 8.2e-05 kPa
343.26 K	0.00129 ± 0.00011 kPa and 0.001263 ± 0.0001 kPa

Settings	Normal melting temperature [°C]
[1], Crystal	174.38 ± 0.68

Settings	Molar enthalpy of transition or fusion [kcal/mol]
[2]	7.79 ± 0.194
